For 29 molecules, IC50 and EC50 results are on record in patent US20240336630A1, “MAP4K1 INHIBITORS” (Blueprint Medicines Corporation, priority 2021, published 2024).

pEC50, pIC50: −log10 of the molar value.

One test concerns the target T1, MAP4K1 (HPK1) (Homo sapiens, UniProt Q92918).
T1 construct: purchased Invitrogen
In words: Inhibition of MAP4K1 biochemical enzymatic activity (EZReader 2 electrophoretic mobility shift). To be noted: HPK1 (Invitrogen), S6K2tide 1.5 μM, 120 min; ATP 26 μM or 1000 μM, not stated which for Table 3. The source says:
MAP4K1 (HPK1) and relevant off-target enzymatic activity was monitored using the Perkin Elmer electrophoretic mobility shift technology platform—the EZReader 2. […] Within the linear, steady-state phase of the kinase enzymatic reaction, the mixed pool of phosphorylated (product) and non-phosphorylated (substrate) peptides was passed through the microfluidic system of the PerkinElmer EZ Reader 2, under an applied electric potential difference. The presence of the phosphate group on the product peptide provided a difference in mass and charge between that of the substrate peptide, resulting in a separation of the substrate and product pools in the sample (Perrin et al. 2010). As the product and substrate peptide mixture passes the lasers within the instrument, these pools are detected (λex=488 nm, λem=568 nm) and resolved as separate peaks. The ratio between these peaks reflects the activity of the compound at that concentration, in that well, under those conditions.
Inhibitors were dissolved in 100% DMSO at a stock concentration of 10 mM. A 100×, 10-point, 4-fold serial dilution of each inhibitor was created in 100% DMSO either manually or on a Hamilton STAR liquid handler, starting at a relevant concentration, usually 1 mM. A volume of 0.130 μL of each concentration was transferred to the relevant wells of a 384-well plate (Greiner 781 201) in duplicate using a TTPLabtech Mosquito nano-litre dispenser. Using a Multidrop Combi, the remaining constituents of the kinase reaction were added to the 130 nL of dosed compound as follows (see table below for final reaction details):
Enzyme activity assays at the ^APPKM for ATP or 1 mM ATP: In each well of a 384-well plate, 0.1-15 nM of untreated enzyme was incubated in a total of 13 μL of buffer (100 mM HEPES pH 7.5, 0.015% Brij 35, 10 mM MgCl2, 1 mM DTT) with 1.5 μM fluorescent peptide and 20-1000 μM ATP, at 25° C., for 60-180 minutes in the presence or absence of a dosed concentration series of compound (1% DMSO final concentration). The kinase reactions were stopped by the addition of 70 μl of Stop buffer (100 mM HEPES pH 7.5, 0.015% Brij 35, 35 mM EDTA and 0.2% of Coating Reagent 3 (Caliper Lifesciences)). The plates were read on a Caliper EZReader 2 as described above.
A general note: Mobility shift assays separate free from complexed probe on a gel.

Test [1] relates to Primary T Cell (expanded CD3+ T cells). The test can be described thus: T cell enhancement of cytokines: IL2 measurement (HTRF) in expanded CD3+ T cells stimulated with anti-CD3/anti-CD28. The note with it: Homo sapiens, plate-bound anti-CD3 and soluble anti-CD28, 24 h, read-out: IL-2 Primary T Cell EC50. The class given is cell-based. As for the experimental part: T cells are isolated from whole blood of healthy donors by immunomagnetic negative selection following manufacture's protocol (StemCell Technologies, human T cell isolation kit). Purity of isolated cells is assessed by flow cytometry and yields 95-98% CD3^+ T cells. For expansion of T cells, 1×10^6 cells/well are plated in serum free cell expansion media (ThermoFisher) containing 30U of recombinant human IL2 (R&D) and stimulated with 25 ul of CD3/CD28 beads (Invitrogen) in 24 well plates for 3-4 days. T cells are then expanded in 175 cm flasks and maintained at a cell density of 1 to 2.5×10^6 cells/ml days by addition of ⅔ of fresh media every 2-3 days. After 10-14 days, cells are frozen in BamBanker freezing media (Thermo) and stored in liquid nitrogen.
For IL2 measurement, expanded CD3^+ T cells are dispensed at 100K cells/well (cultured in X-VIVO 10 Serum-free media) and are stimulated with plate-bound anti-CD3 and soluble anti-CD28 in the presence of vehicle or compound of the disclosure at various concentrations for 24 h. As outlined in the manufacturer's protocol (Cisbio), 16 μL of conditioned media is transferred to a white 384-well low volume plate. Following a 24 h incubation with the anti-IL2 antibodies, the homogenous time resolved fluorescence (HTRF) is measured.
On the technique in general: TR-FRET usually uses a lanthanide donor and a delayed reading to cut background.

T1 sequence (Q92918 whole entry): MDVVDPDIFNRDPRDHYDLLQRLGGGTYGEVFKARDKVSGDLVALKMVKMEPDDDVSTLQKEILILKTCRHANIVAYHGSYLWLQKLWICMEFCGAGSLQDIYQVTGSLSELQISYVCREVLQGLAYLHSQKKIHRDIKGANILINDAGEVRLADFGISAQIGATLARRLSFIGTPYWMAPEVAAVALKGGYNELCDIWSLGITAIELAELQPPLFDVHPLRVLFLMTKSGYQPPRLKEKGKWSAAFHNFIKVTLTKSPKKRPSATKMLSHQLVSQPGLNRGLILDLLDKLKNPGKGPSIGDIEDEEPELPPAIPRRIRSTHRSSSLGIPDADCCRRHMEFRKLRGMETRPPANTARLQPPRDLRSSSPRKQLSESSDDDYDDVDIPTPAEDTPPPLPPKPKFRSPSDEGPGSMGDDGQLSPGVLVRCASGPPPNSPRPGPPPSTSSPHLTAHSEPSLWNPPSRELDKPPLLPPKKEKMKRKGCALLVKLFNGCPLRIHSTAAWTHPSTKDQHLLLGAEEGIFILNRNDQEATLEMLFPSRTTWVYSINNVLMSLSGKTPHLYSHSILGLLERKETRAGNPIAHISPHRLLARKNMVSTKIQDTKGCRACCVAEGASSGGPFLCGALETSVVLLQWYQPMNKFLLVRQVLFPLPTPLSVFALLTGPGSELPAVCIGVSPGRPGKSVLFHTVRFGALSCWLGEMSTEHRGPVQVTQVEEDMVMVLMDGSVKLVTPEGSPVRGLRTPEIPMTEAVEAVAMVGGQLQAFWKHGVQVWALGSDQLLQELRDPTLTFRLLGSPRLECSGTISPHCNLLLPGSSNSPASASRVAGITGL

One may read the pIC50 as the IC50 on a negative log10 scale, so that one unit is a factor of ten. In general, pEC50 refers to the EC50 on a negative log10 scale, so that one unit is a factor of ten. In the case of `C[C@@H]1c2nc(Nc3cc4c(C(C)(C)O)cnc(O[C@H]5C[C@@H](S(C)(=O)=O)C5)c4cn3)ccc2C(=O)OC1(C)C` [Compound 60], the pIC50 on MAP4K1 (HPK1) is 9.54. Moreover, in test [1], the pEC50 is 7.19. On to `CC[C@@](C)(O)c1cnc(OC2CC2)c2cnc(Nc3ccc4c(n3)[C@@H](C)C(C)(C)OC4=O)cc12` (single isomer, unassigned) [Compound 31], for which the pIC50 at MAP4K1 (HPK1) was 9.38. Besides, the pEC50 in test [1] is 7.33.

As for `CC[C@](C)(O)c1cnc(OC2CC2)c2cnc(Nc3ccc4c(n3)C3(CC3)C(C)(C)OC4=O)cc12` (single isomer, unassigned) [Compound 40], the pIC50 on MAP4K1 (HPK1) is 8.68. For the same molecule, the pEC50 in test [1] was 6.77.

Regarding `CC[C@](C)(O)c1cnc(OC2CC2)c2cnc(Nc3ccc4c(n3)C3(CC3)[C@@H](C)OC4=O)cc12` (single isomer, unassigned) [Compound 27], the pIC50 on MAP4K1 (HPK1) was 8.77. The pEC50 in test [1] was 7.38. Consider `CC1(C)Cc2nc(Nc3cc4c(C5(O)CCOCC5)cnc(OC5CC5)c4cn3)ccc2C(=O)O1` [Compound 42], for which, at MAP4K1 (HPK1), the pIC50 is 8.47. On the same count and under the same terms, the value for `C[C@@H]1OC(=O)c2ccc(Nc3cc4c(C(C)(C)O)cnc(O[C@H]5C[C@@H](S(C)(=O)=O)C5)c4cn3)nc2[C@H]1C` [Compound 56] was 9.35. As for `C[C@@H]1c2nc(Nc3cc4c([C@@](C)(O)C5CC5)cnc(OCC(F)(F)F)c4cn3)ccc2C(=O)OC1(C)C` (single isomer, unassigned) [Compound 54], the pIC50 on MAP4K1 (HPK1) was 7.77. Consider `COc1ncc(C(C)(C)O)c2cc(Nc3ccc4c(n3)CCOC4=O)ncc12` [Compound 8], for which, on MAP4K1 (HPK1), the pIC50 was 8.33. For `CC[C@@](C)(O)c1cnc(O[C@H]2C[C@@H](S(C)(=O)=O)C2)c2cnc(Nc3ccc4c(n3)[C@@H](C)C(C)(C)OC4=O)cc12` (single isomer, unassigned) [Compound 66], the negative-log IC50 (pIC50) at MAP4K1 (HPK1) is 8.76. Still for that read-out and setting: the value for `CC1(C)Cc2nc(Nc3cc4c(C(C)(O)c5ccccc5)cnc(OC5CC5)c4cn3)ccc2C(=O)O1` (centres unmarked) [Compound 46] was 7.50; that for `C[C@@H]1c2nc(Nc3cc4c([C@@](C)(O)C(F)(F)F)cnc(OC5CC5)c4cn3)ccc2C(=O)OC1(C)C` (single isomer, unassigned) [Compound 50] was 8.35. Take `COc1ncc(C(C)(C)O)c2cc(Nc3ccnc(N4CC[C@@H]4C)n3)ncc12` [Compound 9]: the pIC50 on MAP4K1 (HPK1) was 8.79. For the molecule `CC[C@@](C)(O)c1cnc(NC2CC2)c2cnc(Nc3ccc4c(n3)[C@@H](C)C(C)(C)OC4=O)cc12` (single isomer, unassigned) [Compound 29], the pIC50 at MAP4K1 (HPK1) is 8.84. Same read-out and setting: as for `CC[C@@](C)(O)c1cnc(O[C@H](C)C[C@@H](C)S(C)(=O)=O)c2cnc(Nc3ccc4c(n3)[C@@H](C)C(C)(C)OC4=O)cc12` (single isomer, unassigned) [Compound 70], the figure is 9.31; as for `CC[C@@](C)(O)c1cnc(OCC(F)(F)F)c2cnc(Nc3ccc4c(n3)[C@@H](C)C(C)(C)OC4=O)cc12` (single isomer, unassigned) [Compound 53], 8.43; as for `COc1ncc(C(C)(C)O)c2cc(Nc3ccnc(C(C)(C)F)n3)ncc12` [Compound 6], 8.03.

In the case of `CC[C@](C)(O)c1cnc(OC2CC2)c2cnc(Nc3ccc4c(n3)C(C)(C)[C@@H](C)OC4=O)cc12` [Compound 34], the pIC50 at MAP4K1 (HPK1) was 8.60. In addition, in test [1], the pEC50 was 6.88. As for `COc1ncc(C(C)(C)O)c2cc(Nc3cnc(C#N)c(N4CCC[C@@H]4C)n3)ncc12` [Compound 13], the pIC50 at MAP4K1 (HPK1) is 8.20. As for `CC[C@@](C)(O)c1cnc(NC2CC2)c2cnc(Nc3ccc4c(n3)[C@@H](C)C(C)(C)OC4=O)cc12` (single isomer, unassigned) [Compound 28], the pIC50 at MAP4K1 (HPK1) was 8.52. For `CC[C@H](O)c1cnc(OC2CN(S(C)(=O)=O)C2)c2cnc(Nc3ccc4c(n3)[C@@H](C)[C@H](C)OC4=O)cc12` (single isomer, unassigned) [Compound 59], the pIC50 at MAP4K1 (HPK1) was 7.89. Take `CC[C@@H](O)c1cnc(OC2CN(S(C)(=O)=O)C2)c2cnc(Nc3ccc4c(n3)[C@@H](C)C(C)(C)OC4=O)cc12` (single isomer, unassigned) [Compound 63]: the pIC50 at MAP4K1 (HPK1) was 8.53.

In the case of `CC[C@@](C)(O)c1cnc(O[C@H](C)C[C@@H](C)S(C)(=O)=O)c2cnc(Nc3ccc4c(n3)[C@@H](C)[C@H](C)OC4=O)cc12` (single isomer, unassigned) [Compound 67], the pIC50 at MAP4K1 (HPK1) was 9.18. For the molecule `COc1ccc(C(C)(C)O)c2cc(Nc3ccnc(C(C)(C)F)n3)ncc12` [Compound 5], on MAP4K1 (HPK1), the pIC50 is 7.74.

`CC[C@@](C)(O)c1cnc(O[C@H](C)C[C@@H](C)S(C)(=O)=O)c2cnc(Nc3ccc4c(n3)[C@@H](C)C(C)(C)OC4=O)cc12` (single isomer, unassigned) [Compound 69]: the pIC50 on MAP4K1 (HPK1) is 9.05.

Regarding `CC[C@H](O)c1cnc(OC2CN(S(C)(=O)=O)C2)c2cnc(Nc3ccc4c(n3)[C@@H](C)[C@H](C)OC4=O)cc12` (single isomer, unassigned) [Compound 58], the pIC50 at MAP4K1 (HPK1) is 8.60. On the same count and under the same terms, as for `C[C@@H]1OC(=O)c2ccc(Nc3cc4c(C(C)(C)O)cnc(OC5CN(S(C)(=O)=O)C5)c4cn3)nc2[C@H]1C` [Compound 57, (7S,8R)-2-((5-(2-Hydroxypropan-2-yl)-8-((1-(methylsulfonyl)azetidin-3-yl)oxy)-2,7-naphthyridin-3-yl)amino)-7,8-dimethyl-7,8-dihydro-5H-pyrano[4,3-b]pyridin-5-one], the figure is 9.70.

In the case of `COc1ncc(C(C)(C)O)c2cc(Nc3cnc(C#N)c(C(C)C)n3)ncc12` [Compound 7], the pIC50 on MAP4K1 (HPK1) was 7.76. Regarding `CC[C@@](C)(O)c1cnc(O[C@H]2C[C@@H](S(C)(=O)=O)C2)c2cnc(Nc3ccc4c(n3)[C@@H](C)[C@H](C)OC4=O)cc12` (single isomer, unassigned) [Compound 61], on MAP4K1 (HPK1), the pIC50 was 9.41. Also, in test [1], the pEC50 was 7.64.

As to `COC[C@@](C)(O)c1cnc(OC2CC2)c2cnc(Nc3ccc4c(n3)[C@@H](C)[C@H](C)OC4=O)cc12` (single isomer, unassigned) [Compound 36], at MAP4K1 (HPK1), the pIC50 was 8.41.
